Source: PubChem BioAssay (NCI)
Where “and” joins values, the source holds several entries; their conditions need not be identical. Equal entries are not always repeated.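 Cells were grown in 96-well plates and exposed to each compound for 48 hours at five concentrations; endpoints were interpolated linearly between bracketing concentrations, or set to the highest concentration if not reached. GI50 is the concentration that inhibits growth by half. Definition used: TGI = concentration required for complete inhibition of growth.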

Assays:
Experiment in all cases: NCI-60 cell line screen, 48 h
[1] = system: UO-31 renal
[2] = system: SK-MEL-2 melanoma
[3] = system: TK-10 renal
[4] = system: SW-620 colon
[5] = system: CAKI-1 renal
[6] = system: SN12C renal
[7] = system: DU-145 prostate
[8] = system: HCT-15 colon
[9] = system: PC-3 prostate
[10] = system: MDA-MB-231 breast

Structure (SMILES) | GI50 [1] [µM] | TGI [1] | GI50 [2] [µM] | TGI [2] | GI50 [3] [µM] | TGI [3] | GI50 [4] | TGI [4] [µM] | GI50 [5] | TGI [5] | GI50 [6] [µM] | TGI [6] | GI50 [7] [µM] | TGI [7] | GI50 [8] [µM] | TGI [8] | GI50 [9] | TGI [9] | GI50 [10] | TGI [10]
C=C1C(=O)O[C@H]2[C@H]1CC/C(CNC(=O)c1cc3cc(OC)ccc3[nH]1)=C\CC[C@@]1(C)O[C@@H]21 | 1.27 | 2.64 µM | 2.18 | 5.24 µM | 1.88 | 4.61 µM | 1.15 µM | 2.77 | 1.97 µM | 6.25 µM | 1.7 | 4.87 µM | 1.21 | 2.78 µM | 0.825 | 2.23 µM | 1.86 µM | 4.04 µM | 1.71 µM | 4.49 µM
CN1CCN(CCCN)CC1 |  | > 100 µM |  | > 100 µM |  | > 100 µM |  | > 100 |  | > 100 µM |  | > 100 µM |  | > 100 µM |  | > 100 µM |  | > 100 µM |  | > 100 µM
Nc1ccc(N(S(=O)(=O)c2ccccc2)S(=O)(=O)c2ccccc2)c(Cl)c1 |  | > 100 µM |  | > 100 µM |  | > 100 µM |  | > 100 |  | > 100 µM |  | > 100 µM |  | > 100 µM |  | > 100 µM |  | > 100 µM |  | > 100 µM
ClCc1cccc(Cn2cnc3c(NC45CC6CC(CC(C6)C4)C5)ncnc32)c1 | 14.5 | 31.4 µM | 16.7 | 48.1 µM | 20.5 | 44.7 µM | 19.1 µM | 46.2 | 16.8 µM | 33.2 µM | 21.2 | 50.9 µM | 17.3 | 46.6 µM | 20.4 | 47.5 µM | 19 µM | 40.2 µM | 15.5 µM | 39.3 µM
O=c1c2c(nc3n1CCS3)[nH]c1ccccc12 | 94.3 | > 100 µM | > 100 | > 100 µM | > 100 | > 100 µM | > 100 µM | > 100 | 76.8 µM | > 100 µM | > 100 | > 100 µM | > 100 | > 100 µM | > 100 | > 100 µM | > 100 µM | > 100 µM | 33.4 µM | > 100 µM
CC(C)=CCCC(C)c1ccc(C)c2c1OCN(CC1CCNCC1)C2 (stereo not given) | 12.8 | 27.3 µM | 18.2 | 35.5 µM | 14.4 | 29.3 µM | 9.87 µM | 23.1 | 17.7 µM | 36.8 µM | 14.2 | 28.9 µM | 16.4 | 32.2 µM | 6.51 | 21.1 µM | 16.5 µM | 42.1 µM | 12.5 µM | 28.3 µM
CCOC(=O)c1cc(C#N)c(=O)n(/N=C(\C)c2ccncc2)c1O | > 100 | > 100 µM | > 100 | > 100 µM | > 100 | > 100 µM | > 100 µM | > 100 | > 100 µM | > 100 µM | > 100 | > 100 µM | > 100 | > 100 µM | > 100 | > 100 µM | > 100 µM | > 100 µM | > 100 µM | > 100 µM
CC(C)c1ccc(C(=O)Nc2nc3ccc(O)cc3s2)cc1 | 0.35 | > 100 µM | 18 | > 100 µM | 8.98 | > 100 µM | 0.552 µM | > 100 | 0.845 µM | > 100 µM | 2.18 | > 100 µM | 1.7 | > 100 µM | 0.274 | > 100 µM | 3.23 µM | > 100 µM | 1.97 µM | > 100 µM
Cn1c([N+](=O)[O-])cnc1/C=C1\Oc2ccccc2C1=O | 0.309 | 1.71 µM | 0.255 | 0.663 µM | 1.29 | 7.77 µM | 0.15 µM | 2.02 | 0.24 µM | 0.601 µM | 0.593 | 2.87 µM | 0.307 | 1.15 µM | 0.193 | 0.675 µM | 1.46 µM | > 22.7 µM | 0.703 µM | 4.39 µM
COc1ccc(/C=N\NC(=O)CN2CCN(c3cc4c(cc3F)c(=O)c(C(=O)N/N=C/c3ccc(OC)c(OC)c3)cn4C3CC3)CC2)cc1OC | > 100 | > 100 µM | 2.72 | 7.28 µM | 23.6 | > 100 µM | 3.33 µM | 16.8 | 9.49 µM | 91.9 µM | 2.72 | 8.21 µM | 3.54 | 12 µM | > 100 | > 100 µM | 2.76 µM | 9.53 µM | 2.33 µM | 6.31 µM
CCN(CC)CC(O)CNc1ccc(NCC2CO2)c2c1C(=O)c1ccccc1C2=O (stereo not given) | 0.391 | 3.35 µM |  | 0.785 µM and 0.839 µM |  | 7.15 µM | 0.0713 µM | 0.797 | 0.757 µM | 2.59 µM | 0.177 | 0.899 µM |  | 5.04 µM | 0.417 | 6.35 µM | 0.395 µM | 3.06 µM |  | 3.01 µM
COc1cc(C(=O)/C(C)=C/c2c[nH]c3ccccc23)cc(OC)c1OC | 0.00796 | > 100 µM | 0.0123 | 15.2 µM |  | 12.4 µM | 0.00416 µM | > 100 | 0.00421 µM | > 100 µM |  | > 100 µM | 0.00383 | > 100 µM | 0.0034 | > 100 µM | 0.00789 µM | > 100 µM | 0.0039 µM | > 100 µM
COc1cc2c(cc1OCCCOc1cc3c(cc1OC)C(=O)N1C[C@H](F)C[C@H]1C=N3)N=C[C@@H]1C[C@@H](F)CN1C2=O | 13.2 | 26 µM | 2.04 | 5.71 µM | 15 | 28.2 µM | 4.2 µM | 20 | 4.83 µM | 17.6 µM | 5.6 | 19.2 µM | 3.44 | 14.7 µM | 10.3 | 23.6 µM | 12.6 µM | 37.3 µM | 16 µM | 31.3 µM
CCN1CCN(C(=O)[C@]23CC[C@@H](C)[C@H](C)[C@@H]2C2=CC[C@@H]4[C@@]5(C)C/C(=C/c6ccncc6)C(=O)C(C)(C)[C@@H]5CC[C@@]4(C)[C@]2(C)CC3)CC1 | 1.37 | 2.65 µM | 1.91 | 3.84 µM | 1.73 | 3.31 µM | 1.71 µM | 3.7 | 1.32 µM | 2.8 µM | 1.63 | 2.99 µM | 1.87 | 3.43 µM | 1.65 | 3.35 µM | 1.34 µM | 3.01 µM | 1.55 µM | 2.95 µM
O=S(=O)(NC1=NCCN1C(=S)SN1CCn2c1nsc2=S)c1ccc(Br)cc1 | 61 | > 100 µM | 18.7 | 46.4 µM | 22 | 83.5 µM | 24.2 µM | 73 | 12.6 µM | > 100 µM | 31.6 | > 100 µM | 28.9 | > 100 µM | 31.8 | > 100 µM | 30.8 µM | > 100 µM | 28.8 µM | > 100 µM
O=c1c2cc(Cl)ccc2oc2ccc(OCCCCCN3CCCCC3)cc12 | 3.98 | 10.4 µM | 2.09 | 7.96 µM | 8.06 | 15 µM | 1.55 µM | 5.09 | 3.24 µM | 9.84 µM | 5.59 | 11.9 µM | 6.4 | 12.7 µM | 1.26 | 3.45 µM | 6.05 µM | 12.7 µM | 3.15 µM | 9.77 µM
O=C1c2ccccc2C(=O)N1CCCSc1ccccc1 |  | > 100 µM |  | > 100 µM |  | > 100 µM |  | > 100 |  | > 100 µM |  | > 100 µM |  | > 100 µM |  | > 100 µM |  | > 100 µM |  | > 100 µM
COc1cc(OC)c(/C=C/S(=O)(=O)Cc2cnc(OC)c(N)c2)c(OC)c1 | < 0.0251 | > 100 µM | < 0.01 | > 100 µM | > 100 | > 100 µM | < 0.0188 µM | > 100 | < 0.0177 µM | > 100 µM | < 0.0232 | > 100 µM | < 0.0202 | > 100 µM | < 0.019 | > 100 µM | < 0.0187 µM | > 100 µM | < 0.0276 µM | > 100 µM
O=c1c(Oc2ccc(F)cc2F)cc2cnc(NC3CCOCC3)nc2n1C1CCS(=O)(=O)CC1 | > 25 | > 25 µM | > 25 | > 25 µM | > 25 | > 25 µM | > 25 µM | > 25 | > 25 µM | > 25 µM | > 25 | > 25 µM | > 25 | > 25 µM | > 25 | > 25 µM | > 25 µM | > 25 µM | > 25 µM | > 25 µM
O=c1ccn(C2OC(CO)C(O)C2F)c(=O)[nH]1 (stereo not given) | > 1000 | > 1000 µM | > 1000 | > 1000 µM | > 1000 | > 1000 µM | > 1000 µM | > 1000 | > 88.9 µM | > 100 µM | > 1000 | > 1000 µM | > 1000 | > 1000 µM | > 1000 | > 1000 µM | > 1000 µM | > 1000 µM | > 1000 µM | > 1000 µM
CO[C@@H]1/C=C\C=C(/C)C(=O)NC2=CC(=O)C(NCCN(C)C)=C(C[C@@H](C)C[C@@H](OC)[C@@H](O)[C@H](C)/C=C(\C)[C@H]1OC(N)=O)C2=O |  | 14 µM and 26.7 µM |  | 21.3 µM and 12.3 µM |  | 24 µM and 34.7 µM | < 0.01 µM and 0.0487 µM | 20.6 | 0.485 µM and 1.38 µM | 12.2 µM and 29.2 µM | 0.0135 | 2.78 µM and 3.81 µM | < 0.01 | 5.13 µM and 12.4 µM |  | 4.06 µM and 10.9 µM | < 0.01 µM and 0.0264 µM | 33.6 µM and 17.8 µM | 0.019 µM and 0.018 µM | 7.26 µM and 2.24 µM
COc1ccc(CN(C)c2ccc(CO)c(Cl)c2)cc1 | 9.38 | 92.2 µM | 8.37 | 38.7 µM | 0.179 | 0.793 µM | 4.53 µM | > 100 | 3 µM | > 64.1 µM | 21.5 | > 100 µM | 34.2 | > 100 µM | 21 | > 100 µM | 20.7 µM | > 100 µM | 22.7 µM | > 88.8 µM
CC1=C2[C@@H](CC1)[C@]1(C)O[C@@](C3CCCCC3)(C[C@H]1OC(=O)CO)[C@H]2OC(=O)/C=C/c1ccccc1 | 0.359 | 14.9 µM | 11.5 | 27.9 µM | 12.3 | 26.5 µM | 9.26 µM | 25.1 | 5.92 µM | 22 µM | 0.318 | 15.1 µM | 9.68 | 23.4 µM | 5.23 | 15.7 µM | 6.33 µM | 21.2 µM | 18.3 µM | 41.5 µM
Cc1nc2sc(C(=O)Nc3cccc(Cl)c3C)c(N)c2cc1C(=O)/C=C/c1ccccc1 | 0.438 | 1.1 µM | 0.304 | 8.61 µM | 1.06 | 4.54 µM | 0.206 µM | 1.32 | 0.417 µM | 1.17 µM | 0.532 | 1.83 µM | 0.769 | 2.84 µM | 0.183 | 0.817 µM | 0.33 µM | 1.54 µM | 0.786 µM | 2.26 µM
CC(=O)c1c(C)[nH]c(-c2nc3ccc(N4CCN(C)CC4)cc3[nH]2)c1-c1ccc(OCC2CCOCC2)cc1 | 0.207 | 6.81 µM | 2 | 16.5 µM | 0.306 | 16.8 µM | 1.68 µM | 18 | 0.326 µM | 12.6 µM | 1.31 | 17.4 µM | 5.09 | 24.8 µM | 0.456 | 5.8 µM | 0.693 µM | 19.3 µM | 0.946 µM | 16.9 µM
